Results published in patent US8383608B2, “Imidazolidine compounds as androgen receptor modulators” (Dart Therapeutics LLC, priority 2008, dated 2013).
Like-named read-outs stand apart in the source and are kept apart here.

System: castrated immature young rats
Experiment: Adapted model of Hershberger's test
Format: in vivo, Sprague Dawley rats
Details: Rattus norvegicus, po, 96 h, ORX control = 0%, SHAM control = 100%, per os daily for 4 days, dose tested 10 mg/kg
Procedure: The selective modulating activity of the androgen receptor is tested in a model of castrated immature young rats. This model, which is widely recognised for evaluating the anabolic effects of androgen compounds on the muscles and on the prostate, has been described by Hershberger et al. 1953 Proc. Soc. Expt. Biol. Med. 83:175.
The method is based on the measurement of the well-known effects of androgens on the growth of the muscles and the accessory male sex organs in animals, and also in men. The consequences of castration appear in the form of a rapid involution and atrophy of the prostate and the seminal vesicles and of the anus-lifting muscle (levator ani). This effect may be completely compensated by an exogeneous administration of androgen, in particular of testosterone. The model is thus used to determine the capacity of the tested molecules to maintain the weight of the accessory sex and muscle organs in immature castrated rats, and therefore their androgenic efficacy.
Immature young Sprague Dawley rats (4 to 5 weeks old) weighing approximately 140-160 g (Charles River, Les Oncins, FRANCE) are distributed randomly in various groups and are kept in an environment at 22±2° C. with an alternating day/night cycle of 12 hours and ad libitum access to food and drink.
On day 0 (seven days before commencement of the first treatment) the rats are weighed individually then anaesthetised with an intraperitoneal dose of Ketamine/xylazine (85/15 mg/kg, approximately 2 ml/kg). Each animal is then placed on a sterile field and the abdomen and the scrotum are disinfected with Betadine and 70% alcohol. In the case of the orchidectomised control animals (ORX), the testicles are removed via an incision in the middle of the scrotum. A sterile suture is then made to ligature the supra-testicular portion of the tissue prior to surgical section of each testicle. The groups of animals to be treated by the tested compounds are operated on in an identical manner. In the case of the intact control animals (SHAM), the testicles are similarly extracted and reintroduced delicately to their original location. The site of surgical intervention is then sutured using sterile suture thread, and the site is disinfected again by application of Betadine. Each animal is then kept under a sterile pad until it awoke, before being returned to its cage. The animals are kept in an environment at 22±2° C. with an alternating day/night cycle of 12 hours and ad libitum access to food and drink. The animals are treated with the molecules to be tested from post-surgery day 7 and until day 10 preceding sacrifice (day 11).
The rats are split into groups and treated daily from day 7 to day 10 under the conditions defined below: • 1. SHAM control group: Vehicle (PEG400/DMSO/water; 79/1/20) administered per os. • 2. ORX control group: Vehicle (PEG400/DMSO/water; 79/1/20) administered per os. • 3. Treated ORX group: The tested compounds are administered individually per os in suspension in the vehicle described above, in a dose of 10 mg/kg.
After treatment for 4 successive days, the animals are decapitated using a guillotine. The levator ani and the ventral prostate are removed and weighed individually. For comparing inter-experimental data, the weight of each organ is standardised and expressed in milligrammes per 100 g of the weight of the animal (W). For each organ, the average of the standardised weights of the ORX control group is fixed by definition at 0% and the average of the standardised weights of the SHAM control group is fixed by definition at 100%. The efficacy of each product is expressed as a percentage and calculated using the following formula: (Wtreated−WORX)/(WSHAM−WORX)×100
A subsequent ANOVA test is used for statistical analysis to identify the differences between groups.

[1] = levator ani weight, read-out: Anabolic activity %
[2] = ventral prostate weight, read-out: Androgenic activity % (Prostate)

CN1C(=O)N(c2ccc(C#N)c(C(F)(F)F)c2)C(=O)C1(CO)c1ccc(Cl)cc1 (stereo not drawn) [Example 7, 4-[4-(4-Chlorophenyl)-2,5-dioxo-4-hydroxymethyl-3-methyl-imidazolidin-1-yl)-2-trifluoromethylbenzonitrile]
response vs control in vivo at 10 mg/kg [1]: 25 to 50%
response vs control in vivo at 10 mg/kg [2]: 0%

CN1C(=O)N(c2ccc(C#N)c(C(F)(F)F)c2)C(=O)[C@@]1(CO)c1ccccc1 [Example 10, (S)-4-[2,5-Dioxo-4-(hydroxymethyl)-3-methyl-4-phenylimidazolidin-1-yl]-2-trifluoromethylbenzonitrile]
response vs control in vivo at 10 mg/kg [1]: 75 to 100%
response vs control in vivo at 10 mg/kg [2]: 0.5 to 25%

CCN1C(=O)N(c2ccc(C#N)c(C(F)(F)F)c2)C(=O)C1(CO)c1ccccc1 (stereo not drawn) [Example 12, 4-[2,5-Dioxo-3-ethyl-4-(hydroxymethyl)-4-phenylimidazolidin-1-yl]-2-trifluoromethylbenzonitrile]
response vs control in vivo at 10 mg/kg [1]: 75 to 100%
response vs control in vivo at 10 mg/kg [2]: 50 to 75%
